Experimental data: ChEMBL document CHEMBL1155747, “Cytotoxic diacetylenes from the stony coral Montipora species” (2001)
≈ marks a conversion by molar mass, not a printed value.

Tests used:
Assay type in all cases: functional
[1] = system: SK-MEL-2; assay: Cytotoxicity against human SK-MEL-2 cells; conditions: read-out: ED50 (the source's name)
[2] = system: HCT-15; assay: Cytotoxicity against human HCT15 cells; conditions: read-out: ED50 (the source's name)
[3] = system: SK-OV-3; assay: Cytotoxicity against human SKOV3 cells; conditions: read-out: ED50 (the source's name)
[4] = system: A549; assay: Cytotoxicity against human A549 cells; conditions: read-out: ED50 (the source's name)
[5] = system: XF498; assay: Cytotoxicity against human XF498 cells; conditions: read-out: ED50 (the source's name)
[6] = system: HCT-116; assay: Inhibition of cell cycle in human HCT116 cells assessed as increase in apoptotic fraction at 100 ug/mL after 24 hrs by flow cytometry; design: scale not given: the % may be the effect or the level left

CCCCCCCC#CC#CCOCC(=O)[O-].[Na+] [MONTIPORIC ACID A SODIUM SALT]
EC50 [1]: 7.97 µg/mL
EC50 [2]: 8.3 µg/mL
EC50 [3]: 7.5 µg/mL
EC50 [4]: 6.31 µg/mL
EC50 [5]: 7.72 µg/mL

C=CCCCCCC#CC#CCOCCO [MONTIPORYNE H]
EC50 [1]: 25.1 µg/mL (≈ 114 µM)
EC50 [2]: 24.1 µg/mL (≈ 109 µM)
EC50 [3]: 17.9 µg/mL (≈ 81.4 µM)
EC50 [4]: 22.7 µg/mL (≈ 103 µM)
EC50 [5]: 16.9 µg/mL (≈ 76.6 µM)

CCCCCCCC#CC#CC(O)CC(C)=O (racemic) [MONTIPORYNE I]
EC50 [1]: 1.4 µg/mL (≈ 5.97 µM)
EC50 [2]: 3.73 µg/mL (≈ 15.9 µM)
EC50 [3]: 1.81 µg/mL (≈ 7.72 µM)
EC50 [4]: 4.17 µg/mL (≈ 17.8 µM)
EC50 [5]: 3.7 µg/mL (≈ 15.8 µM)

C=CCCCCCCCC#CC#CCOCC(=O)[O-].[Na+]
EC50 [1]: 4.68 µg/mL
EC50 [2]: 4.47 µg/mL
EC50 [3]: 4.88 µg/mL
EC50 [4]: 6.26 µg/mL
EC50 [5]: 4.96 µg/mL

C=CCCCCCCCC#CC#CC(O)CC(C)=O (racemic) [MONTIPORYNE K]
EC50 [1]: 3.52 µg/mL (≈ 13.5 µM)
EC50 [2]: 4.18 µg/mL (≈ 16.1 µM)
EC50 [3]: 3.34 µg/mL (≈ 12.8 µM)
EC50 [4]: 4.91 µg/mL (≈ 18.9 µM)
EC50 [5]: 4.45 µg/mL (≈ 17.1 µM)

C=CCCCCCC#CC#C/C=C/C(C)=O
EC50 [1]: 4.21 µg/mL (≈ 19.6 µM)
EC50 [2]: 4.56 µg/mL (≈ 21.3 µM)
EC50 [3]: 3.52 µg/mL (≈ 16.4 µM)
EC50 [4]: 6.39 µg/mL (≈ 29.8 µM)
EC50 [5]: 5.5 µg/mL (≈ 25.7 µM)

C=CCCCCCC#CC#CCO [MONTIPORYNE G]
EC50 [1]: 9.56 µg/mL (≈ 54.2 µM)
EC50 [2]: 12.9 µg/mL (≈ 73.4 µM)
EC50 [3]: 9.79 µg/mL (≈ 55.5 µM)
EC50 [4]: 13.8 µg/mL (≈ 78.2 µM)
EC50 [5]: 10.8 µg/mL (≈ 61.2 µM)

C=CCCCCCC#CC#CCOCC(=O)[O-].[Na+] [MONTIPORIC AICD C]
EC50 [1]: > 30 µg/mL
EC50 [2]: > 30 µg/mL
EC50 [3]: > 30 µg/mL
EC50 [4]: > 30 µg/mL
EC50 [5]: > 30 µg/mL

C=CCCCCCC#CC#CC(O)CC(C)=O (racemic)
EC50 [1]: 3.74 µg/mL (≈ 16.1 µM)
EC50 [2]: 3.42 µg/mL (≈ 14.7 µM)
EC50 [3]: 3.85 µg/mL (≈ 16.6 µM)
EC50 [4]: 4.97 µg/mL (≈ 21.4 µM)
EC50 [5]: 3.87 µg/mL (≈ 16.7 µM)

COc1cccc2c1C(=O)c1c(O)c3c(c(O)c1C2=O)C[C@@](O)(C(=O)CO)C[C@@H]3O[C@H]1C[C@H](N)[C@H](O)[C@H](C)O1 [DOXORUBICIN]
EC50 [1]: 0.03 µg/mL (≈ 0.0552 µM)
EC50 [2]: 0.04 µg/mL (≈ 0.0736 µM)
EC50 [3]: 0.13 µg/mL (≈ 0.239 µM)
EC50 [4]: 0.02 µg/mL (≈ 0.0368 µM)
EC50 [5]: 0.08 µg/mL (≈ 0.147 µM)

C=CCCCCCCCC#CC#CCOCC(=O)OC [METHYLMONTIPORATE B]
EC50 [1]: > 30 µg/mL
EC50 [2]: > 30 µg/mL
EC50 [3]: > 30 µg/mL
EC50 [4]: > 30 µg/mL
EC50 [5]: > 30 µg/mL

CCCCCCCC#CC#C/C=C/C(C)=O [MONTIPORYNE A]
Activity [6]: 19%

CCCCCCCC#CC#CCOCC(=O)OC [METHYLMONTIPORATE A]
EC50 [1]: > 30 µg/mL
EC50 [2]: 25.6 µg/mL (≈ 102 µM)
EC50 [3]: 20.5 µg/mL (≈ 82 µM)
EC50 [4]: > 30 µg/mL
EC50 [5]: > 30 µg/mL

C=CCCCCCCCC#CC#CCO
EC50 [1]: 3.94 µg/mL (≈ 19.3 µM)
EC50 [2]: 3.32 µg/mL (≈ 16.2 µM)
EC50 [3]: 3.23 µg/mL (≈ 15.8 µM)
EC50 [4]: 3.9 µg/mL (≈ 19.1 µM)
EC50 [5]: 5.26 µg/mL (≈ 25.7 µM)

C=CCCCCCC#CC#C/C=C\C(C)=O
EC50 [1]: 4.61 µg/mL (≈ 21.5 µM)
EC50 [2]: 11.3 µg/mL (≈ 52.7 µM)
EC50 [3]: 5.23 µg/mL (≈ 24.4 µM)
EC50 [4]: > 30 µg/mL
EC50 [5]: 29.2 µg/mL (≈ 136 µM)

CCCCCCCC#CC#CCO
EC50 [1]: 4.45 µg/mL (≈ 25 µM)
EC50 [2]: 5.9 µg/mL (≈ 33.1 µM)
EC50 [3]: 4.63 µg/mL (≈ 26 µM)
EC50 [4]: 5.48 µg/mL (≈ 30.7 µM)
EC50 [5]: 5.59 µg/mL (≈ 31.4 µM)
